Reference: publication PMC10298275, “Antiproliferative Activity and Impact on Human Gut Microbiota of New O-Alkyl Derivatives of Naringenin and Their Oximes” (International Journal of Molecular Sciences, 2023)
Converted amounts (≈) assume the structure as drawn. Like-named read-outs stand apart in the source and are kept apart here.

Tests used:
SRB assay, cytotoxicity [1] = type: cell-based, human; details: human, HT-29 cells; HT-29, SRB, 24 h exposure, three independent repeats; read-out: Cytotoxicity (IC50 ± SD)
Experimental: (§1) The HT-29 cells (ATCC, Manassas, VA, USA) were cultured within α-MEM (IIET PAS, Wrocław, Poland) supplemented with 10% fetal bovine serum (Sigma, St. Louis, MO, USA), antimycotic (100 μg/mL penicillin, 100 μg/mL streptomycin and 0.25 μg/mL amphotericin) (Sigma) and 2 mM glutamine (Sigma). The 3T3-L1 cells (ATCC, Manassas, VA, USA) were cultivated using DMEM high-glucose medium (IIET PAS, Wrocław, Poland) supplemented as above. Both cell lines were cultured at 37 °C in an atmosphere of 5% CO2.
(§2) The sulforhodamine B (SRB) assay was performed according to a previously published protocol. Briefly, 1 × 10^4 HT-29 or 5 × 10^3 3T3-L1 cells were seeded into 96-well plates. After attaching to the plate surface, the cells were incubated with 100, 75, 50, 25, 10 or 1 µg/mL of the investigated compounds for 24 h. After this time, proteins were precipitated with trichloroacetic acid and stained with SRB. The absorbance was measured at 560 nm using a GloMax Discover Microplate Reader (Promega, Madison, WI, USA).

[2] = test system: Staphylococcus aureus ATCC 25923; assay: MIC, microdilution method; type: cell-based; details: Staphylococcus aureus, ATCC25923; S. aureus ATCC 25923; MHB, 18 h, 37 °C; tested 512 to 1 µg/mL; read-out: MIC
Experimental: (§3) Non-pathogenic reference strains representing the intestinal microbiome were used for the studies: Escherichia coli K12, Staphylococcus aureus ATCC 25923 and Enterococcus faecalis ATCC 29212. All strains were obtained from the collection of the Department of Microbiology at the Medical University of Wrocław.
(§4) The strains were received from the museum (−80 °C) and grown in tryptic soy broth (TSB, OXOID, Basingstoke, UK) under continuous shaking conditions (MaxQTM6000 incubator shaker, Thermo Scientific, Waltham, MA, USA) at 125 rpm at 37 °C. Then, they were moved to the growth media, namely tryptic soy agar (TSA, OXOID, Basingstoke, UK) and MacConkey agar (MC, Millipore, Darmstadt, Germany) for S. aureus or E. faecalis and E. coli, respectively.
(§5) A fresh 18–24 h culture was used for each study. For this purpose, a culture with a density of 1.5 × 10^8 CFU/mL in Mueller–Hinton broth (MHB, OXOID, Basingstoke, UK) was prepared and used for further microdilution studies.
(§6) The antimicrobial activity of the O-alkyl derivatives of naringenin and their oximes was tested in vitro using the microdilution method, showing the minimum inhibitory concentration (MIC), in accordance with the recommendations of the European Antimicrobial Susceptibility Testing Committee EUCAST [44]. MICs were determined in 96-well microdilution plates. The tests were carried out in MHB medium. The O-alkyl derivatives of naringenin and their oximes were tested in the concentration range of 512 to 1 µg/mL in a geometric process in MHB medium. The final concentration of the test strains in each test well was 5 × 10^5 CFU/mL. MICs were read after 18 h (for E. coli and S. aureus) and 24 h (for E. faecalis) incubation at 37 °C.
(§7) A strain growth control (tested strain in medium), background control for tested compounds (naringenin derivatives in MHB), medium control (only pure MHB) and compound solvent control (DMSO at test compound concentration, strain and MHB) were set for each experiment. Each test was set up with three independent experiments, each as three separate replicates.
(§8) The […], OD600, was measured in a plate reader (ASYS UVM340, BIOCHROM Ltd., Cambridge, UK). The background control of the tested compounds and the clean medium were included in the absorbance results.

[3] = test system: Enterococcus faecalis ATCC 29212; assay: MIC, microdilution method; type: cell-based; details: E. faecalis ATCC 29212, MHB, 24 h, 37 °C, tested 512 to 1 µg/mL
Experimental: as §3, §4, §5, §6, §7, §8

Escherichia coli K12 [4] = assay: MIC, microdilution method; type: cell-based; details: Escherichia coli; E. coli K12; MHB, 18 h, 37 °C; tested 512 to 1 µg/mL; read-out: MIC
Experimental: as §3, §4, §5, §6, §7, §8

[5] = test system: Staphylococcus aureus ATCC 25923; assay: MBC assay; type: cell-based; details: Staphylococcus aureus, ATCC25923; S. aureus ATCC 25923; read-out: MBC
Experimental: (§9) The minimum bactericidal concentration (MBC) was tested for all naringenin derivatives. First, 10 µL of medium was taken from the plate, on which the MIC was determined for the MIC value, the value below and the two values above. This volume was transferred to TSA or MC agar. After 18–24 h (depending on strain) incubation at 37 °C, colonies were counted. The concentration of test compounds at which no bacterial growth was observed was defined as the MBC value. Each experiment was repeated 3 times.

[6] = test system: Enterococcus faecalis ATCC 29212; assay: MBC assay; type: cell-based; details: Enterococcus faecalis, ATCC29212; E. faecalis ATCC 29212; read-out: MBC
Experimental: as §9

Escherichia coli K12 [7] = assay: MBC assay; type: cell-based; details: Escherichia coli; E. coli K12; read-out: MBC
Experimental: as §9

SRB assay, cytotoxicity [8] = type: cell-based, mouse; details: mouse, 3T3-L1 cells; 3T3-L1, SRB, 24 h exposure, three independent repeats; read-out: Cytotoxicity (IC50 ± SD)
Experimental: as §1, §2

HT-29 cells [9] = assay: MTT assay, cell viability; type: cell-based, human; details: 24 h; for effect on colon adenocarcinoma cells (viability, MTT): HT-29, highest concentration 100 µg/mL; for reduction in cell viability: HT-29, MTT, 10 µg/mL dose
Experimental: as §1
First, 1 × 10^4 HT-29 cells or 5 × 10^3 3T3-L1 cells were seeded into a 96-well plate and incubated for one night. Then, cells were treated with different concentrations of the investigated compounds within 24 h. Afterwards, the medium was replaced with a fresh medium containing 0.5 mg/mL of 3-(4,5-dimethylthiazol-2-yl)-2,5-diphenyl-2H-tetrazolium bromide (MTT, Sigma) and incubated for 2 h at 37 °C. After removing the medium, the formazan salts were dissolved in dimethyl sulfoxide (DMSO, Sigma), and the absorbance of the solution was measured at 560 nm using a plate reader.

HT-29 cells [10] = assay: SRB assay, cytotoxicity; type: cell-based, human; details: HT-29, SRB, up to 100 µg/mL
Experimental: as §1, §2

[11] = Enterococcus faecalis, ATCC29212, read-out: MIC

| SMILES | IC50 at 24 h (SRB assay, cytotoxicity [1]) [µg/mL] | MIC [2] [µg/mL] | MIC [3, 11] [µg/mL] | MIC (Escherichia coli K12 [4]) [µg/mL] | MBC [5] [µg/mL] | MBC [6] [µg/mL] | MBC (Escherichia coli K12 [7]) [µg/mL] | IC50 at 24 h (SRB assay, cytotoxicity [8]) [µg/mL] | effect on colon adenocarcinoma cells (viability, MTT) (HT-29 cells [9]) | melting point [°C] | reduction in cell viability (HT-29 cells [9]) | effect on the proliferation of the HT-29 cell line (HT-29 cells [10]) | MIC [3] |
| --- | --- | --- | --- | --- | --- | --- | --- | --- | --- | --- | --- | --- | --- |
| CCCCCCOc1cc(O)c2c(c1)O[C@H](c1ccc(O)cc1)CC2=O [A1, 7-O-hexylnaringenin] | 14.3 ± 0.84 (≈ 40.1 µM) | 16 (≈ 44.9 µM) | 16 (≈ 44.9 µM) | > 512 | > 512 | > 512 | > 512 | 10.8 ± 1.1 (≈ 30.4 µM) | completely inhibited |  |  |  |  |
| CCCCCCCOc1cc(O)c2c(c1)O[C@H](c1ccc(O)cc1)CC2=O [A3, 7-O-Heptylnaringenin] | 14.2 ± 0.56 (≈ 38.3 µM) | 16 (≈ 43.2 µM) | 32 (≈ 86.4 µM) | > 512 | > 512 | > 512 | > 512 | 7.61 ± 1.2 (≈ 20.5 µM) | completely inhibited | 114 to 115 |  |  |  |
| CCCCCCCCOc1cc(O)c2c(c1)O[C@H](c1ccc(O)cc1)CC2=O [A5, 7-O-Octylnaringenin] | 14.63 ± 0.13 (≈ 38.1 µM) | 8 (≈ 20.8 µM) | 16 (≈ 41.6 µM) | > 512 | > 512 | > 512 | > 512 | 8.86 ± 0.67 (≈ 23 µM) | completely inhibited | 111 to 113 |  |  |  |
| CCCCCCCCCOc1cc(O)c2c(c1)O[C@H](c1ccc(O)cc1)CC2=O [A7, 7-O-Nonylnaringenin] | 15 ± 0.41 (≈ 37.7 µM) | 16 (≈ 40.2 µM) | 16 (≈ 40.2 µM) | > 512 | > 512 | > 512 | > 512 | 8.65 ± 0.71 (≈ 21.7 µM) | completely inhibited | 115 to 116 |  |  |  |
| CCCCCCOc1cc(O)c2c(c1)O[C@H](c1ccc(O)cc1)CC2=NO [B1, 7-O-hexylnaringenin oxime] | 11.3 ± 1.63 (≈ 30.5 µM) | 8 (≈ 21.5 µM) | 16 (≈ 43.1 µM) | > 512 | 32 (≈ 86.2 µM) | 256 (≈ 689 µM) | > 512 | 8.3 ± 0.72 (≈ 22.3 µM) |  |  | more than 50% |  |  |
| CCCCCCCOc1cc(O)c2c(c1)O[C@H](c1ccc(O)cc1)CC2=NO [B3, 7-O-Heptylnaringenin oxime] | 11.3 ± 0.81 (≈ 29.3 µM) | 64 (≈ 166 µM) | 16 (≈ 41.5 µM) | > 512 | 128 (≈ 332 µM) | 512 (≈ 1330 µM) | > 512 | 7.77 ± 1.11 (≈ 20.2 µM) |  | 186 to 187 | more than 50% |  |  |
| CCCCCCCOc1ccc([C@@H]2CC(=NO)c3c(O)cc(OCCCCCCC)cc3O2)cc1 [B4, 7,4′-Di-O-heptylnaringenin oxime] | > 100 | > 512 | > 512 | > 512 | > 512 | > 512 | > 512 | > 100 |  | 82 to 83 |  | no effect on the proliferation | >512 (>512) µg/mL |
| CCCCCCCCOc1cc(O)c2c(c1)O[C@H](c1ccc(O)cc1)CC2=NO [B5, 7-O-Octylnaringenin oxime] | 9.96 ± 1.13 (≈ 24.9 µM) | 256 (≈ 641 µM) | 16 (≈ 40.1 µM) | > 512 | > 512 | 256 (≈ 641 µM) | > 512 | 7.1 ± 1.57 (≈ 17.8 µM) |  | 183 to 185 | more than 50% |  |  |
| CCCCCCCCOc1ccc([C@@H]2CC(=NO)c3c(O)cc(OCCCCCCCC)cc3O2)cc1 [B6, 7,4′-Di-O-octylnaringenin oxime] | > 100 | > 512 | > 512 | > 512 | > 512 | > 512 | > 512 | > 100 |  | 85 to 86 |  | no effect on the proliferation | >512 (>512) µg/mL |
| CCCCCCCCCOc1cc(O)c2c(c1)O[C@H](c1ccc(O)cc1)CC2=NO [B7, 7-O-Nonylnaringenin oxime] | 11.2 ± 1.27 (≈ 27.2 µM) | 128 (≈ 310 µM) | 8 (≈ 19.3 µM) | > 512 | > 512 | > 512 | > 512 | 6.08 ± 0.64 (≈ 14.7 µM) |  | 176 to 178 | more than 50% |  |  |
